Reference: US6184401A, “Alpha-fluoro alkynoic acids with anticonvulsant activity” (priority 1999, dated 2001)

Assays:
[1] = tested on: animals (seizure induced by pentylenetetrazole); test: PTZ convulsion test (anticonvulsant activity); type: in vivo; details: intraperitoneal, sodium salt, PTZ 65 mg/kg s.c. after 15 minutes
Description: The anti-convulsive activity of the compounds of the invention was determined by the PTZ convulsion test (E. Swinyard et al., 1969, "Laboratory Evaluation of Antiepileptic Drugs, Review of Laboratory Methods," Epilepsia 10, 107-119; E. Swinyard, J. Woodhead, in Antiepileptic Drugs, 2nd ed., D. Woodbury, J. Penry, C. Pippenger, eds., Raven Press, New York, 1982, 111-126). Briefly, animals were dosed intraperitoneally with the sodium salt of the compound to be tested, and then challenged after 15 minutes with a subcutaneous injection of pentylenetetrazole (65 mg/kg). The percentage of animals that were protected from seizure (defined as at least one episode of continuous seizure activity lasting at least five seconds) is reported in Table 1 as "Anticonvulsant Activity %".

animals = type: in vivo; details: dose 1.5 mmol/kg, sodium salt, after 15 minutes
Description: The sedative activity of the compounds was determined by the "Rotorod" test (Dunham, Miya, 1957, J. Am. Pharm. Assoc., 46, 208-209). Animals were dosed with the sodium salt of the compound to be tested, and after 15 minutes they were placed on the ROTOROD apparatus (Rotorod, Ugobasile, Italy). The percentage of animals that fell from the rod is reported as "Sedative Activity %" in Table 1.

fetuses = test: Teratogenic potential: exencephaly in fetuses of treated pregnant animals; type: in vivo; details: sodium salt, injected day 8 of gestation, fetuses examined day 18
Description: The teratogenic potential of the compounds was determined by injecting pregnant animals on day 8 of gestation with the sodium salt of the compound to be tested, and by examining the fetuses on day 18 of gestation (H. Nau, 1985, Toxicol. Appl. Pharmacol., 80, 243-250; H. Nau, W. Loscher, 1986, Fund. Appl. Toxicol., 6, 669).

[2] = tested on: newborns of women taking VPA; details: newborns of women taking VPA during pregnancy; cited from earlier work
mice = details: cited from earlier work
[3] = in vivo; cited from earlier work
children on polytherapy = details: young children on polytherapy; cited from earlier work
[4] = anticonvulsant; cited from earlier work
hepatotoxicity = details: effect of the 2-fluoro substituent; cited from earlier work

For CCCC(CCC)C(=O)O [VPA, 2-propylpentanoic acid], which “Anticonvulsant Activity % (percentage of animals protected from seizure)” value ([1]; dose 1.0 mmol/kg) is on record?
Its value is 60%.

What about the “Sedative Activity % (percentage of animals that fell from the rod)” value (animals) of the same compound?
The value was 40%.

And the “Teratogenic Activity % (percent of fetuses exhibiting exencephaly)” value (fetuses; dose 3.0 mmol/kg)?
Its value is 50%.

What about the “risk of spina bifida” value [2] of the same compound?
The value was 1-2%.

What about the neural tube defects (mice) of the same compound?
Its neural tube defects is “induce neural tube defects in mice”.

What about the duration of action [3] of the same compound?
The duration of action was “short duration of action”.

What about the serious side effects [3] of the same compound?
Its serious side effects is “sedation, potentially fatal hepatotoxicity, and teratogenicity”.

And the “VPA-induced hepatic fatality rate” value (children on polytherapy)?
The value was 1/500.

For CCCC(F)(CCC)C(=O)O [2-fluoro-2-propylpentanoic acid], which “potency relative to VPA” value [4] is on record?
Its value is “less potent than VPA”.

With CC#CCC(F)(CCCCC)C(=O)O (centres unmarked) [Example 5, 2-fluoro-2-n-pentyl-4-hexynoic acid] as the compound, how does the “Anticonvulsant Activity % (percentage of animals protected from seizure)” value ([1]; dose 1.5 mmol/kg) read?
The value was 80%.

What about the “Teratogenic Activity % (percent of fetuses exhibiting exencephaly)” value (fetuses; dose 1.5 mmol/kg) of the same compound?
The value was 1%.

What does the source list for CC#CCC(F)(CCC)C(=O)O (centres unmarked) [Example 3, 2-fluoro-2-n-propyl-4-hexynoic acid]?
Anticonvulsant Activity % (percentage of animals protected from seizure) ([1]; dose 1.5 mmol/kg): 20%; Teratogenic Activity % (percent of fetuses exhibiting exencephaly) (fetuses; dose 3.0 mmol/kg): 2%

What does the source list for CC#CCC(F)(CCCCCCCC)C(=O)O (centres unmarked) [Example 8, 2-fluoro-2-n-octyl-4-hexynoic acid]?
Anticonvulsant Activity % (percentage of animals protected from seizure) ([1]; dose 0.25 mmol/kg): 40%; Teratogenic Activity % (percent of fetuses exhibiting exencephaly) (fetuses; dose 0.5 mmol/kg): 0%

With CCCC(CCC(F)(F)F)C(=O)O (centres unmarked) [5,5,5-trifluoro-2-n-propyl pentanoic acid] as the compound, how does the “potency relative to VPA” value [4] read?
The value was “less potent than VPA”.

For O=C(O)C(CCC(F)(F)F)CCC(F)(F)F [5,5,5-trifluoro-2-(3,3,3-trifluoropropyl) pentanoic acid], which “potency relative to VPA” value [4] is on record?
Its value is “less potent than VPA”.

Which “hepatotoxicity relative to 2-propyl-4-pentenoic acid” value (hepatotoxicity) does the source give for C=CCC(F)(CCC)C(=O)O (centres unmarked) [2-fluoro-2-propyl-4-pentenoic acid] here?
Its value is “reduce hepatotoxicity relative to 2-propyl-4-pentenoic acid”.

For CC#CCC(F)(CCCCCCC)C(=O)O (centres unmarked) [Example 7, 2-fluoro-2-n-heptyl-4-hexynoic acid], which “Anticonvulsant Activity % (percentage of animals protected from seizure)” value ([1]; dose 0.5 mmol/kg) is on record?
The value was 60%.

What about the “Teratogenic Activity % (percent of fetuses exhibiting exencephaly)” value (fetuses; dose 1.0 mmol/kg) of the same compound?
Its value is 0%.
